These results are taken from US12728119B2, “Pharmaceutical composition for preventing or treating cancer comprising 3-ketoacyl CoA thiolase inhibitor and carnitine acylcarnitine carrier inhibitor” (NATIONAL CANCER CENTER, priority 2020, dated 2026).

Where “and” joins values, the source holds several entries; their conditions need not be identical. Equal values may be shown once.

Holding throughout (format): cell-based
The test system of one assay is cancer cells. The experiment in a line: SRB analysis 3, triple combination, summary over cancer panels. The method, then: (§1) Through SRB analysis (n=3), the effect of triple combination treatment of a CAC inhibitor (KN510: omeprazole), ACAA inhibitor (KN713: trimetazidine) and other anticancer drug on cell growth in the cancer cells was analyzed. (see Table 11).
(§2) The SRB assay was performed as follows: each cell line (100 μl) was seeded into 96-well microtiter plates at densities ranging from 5,000 to 40,000 cells/well depending on the doubling time of each cell line. After 24 hours, drug (100 μl per well) was added to each well and the culture was incubated at 37° C. for 48 hours. Cells were then fixed in 50% TCA (50 μl per well) and plates were incubated at 4° C. for a minimum of 1 hour or a maximum of 3 hours. After that, the liquid was removed from the plate, then rinsed 5 times with water and dried for approximately 12-24 hours at room temperature (RT). After the fixed cells were stained with 0.4% SRB (100 μl per well) for 10 minutes at room temperature, the plates were washed 3 times with 1% glacial acetic acid and dried at room temperature for about 12-24 hours. SRB staining was dissolved in 10 mM Trizma base and absorbance was read at 515 nm. The effect of the drug was expressed as GI50 (50% growth inhibition), TGI (total growth inhibition) or LC50 (lethal concentration). GI50 is the maximum concentration at the moment of 50% inhibition of cell proliferation and IC50 is the concentration of the drug that inhibits the enzyme activity in vitro by 50% in this study.

For assay [1], the system named is A549 non-small cell lung cancer (NSCLC) cell line. The experiment in a line: SRB analysis 3. As to conditions: 48 hours. The procedure: as §1, §2
For assay [2], the system named is SK-hep-1 liver cancer cell line. The experiment in a line: SRB analysis 3. The following applies: 48 hours. The method, then:
as §1, §2

The subject of assay [3] is ACHN renal cancer cell line. The experiment in a line: SRB analysis 3. As to conditions: 48 hours. The procedure: as §1, §2
Assay [4] concerns Caki-1 renal cancer cell line. The experiment in a line: SRB analysis 3. The following applies: 48 hours. The procedure: as §1, §2
In assay [5] the test system is MKN45 gastric cancer cell line. The experiment in a line: SRB analysis 3. The following applies: 48 hours. The procedure: as §1, §2
The subject of assay [6] is Huh-7 liver cancer cell line. The experiment in a line: SRB analysis 3. The following applies: 48 hours. The method, then: as §1, §2
Assay [7] concerns UACC62 melanoma cell line. The experiment in a line: SRB analysis 3. The following applies: 48 hours. The method, then:
as §1, §2

The test system of assay [8] is MIA PaCa-2 pancreatic cancer (PDAC) cell line. The experiment in a line: SRB analysis 3. As to conditions: 48 hours. The procedure: as §1, §2
Another assay concerns A375 melanoma cell line. The experiment in a line: SRB analysis 3. The following applies: 48 hours. The method, then: as §1, §2
Assay [9] concerns AGS gastric cancer cell line. The experiment in a line: SRB analysis 3. As to conditions: 48 hours. The method, then: as §1, §2
The subject of assay [10] is OVCAR-8 ovarian cancer cell line. The experiment in a line: SRB analysis 3. The following applies: 48 hours. The method, then: as §1, §2
The test system of assay [11] is MDA-MB-231 breast cancer cell line. The experiment in a line: SRB analysis 3. The following applies: 48 hours. The method, then:
as §1, §2

Assay [12] deals with H1975 non-small cell lung cancer (NSCLC) cell line. The experiment in a line: SRB analysis 3. As to conditions: 48 hours. The procedure: as §1, §2
In assay [13] the test system is DU145 prostate cancer cell line. The experiment in a line: SRB analysis 3. As to conditions: 48 hours. The method, then: as §1, §2
The test system of assay [14] is HCT-116 colon cancer cell line. The experiment in a line: SRB analysis 3. The following applies: 48 hours. The procedure: as §1, §2
Assay [15] deals with AsPC-1 pancreatic cancer (PDAC) cell line. The experiment in a line: SRB analysis 3. The following applies: 48 hours. The method, then: as §1, §2
Assay [16] relates to PC-3 prostate cancer cell line. The experiment in a line: SRB analysis 3. As to conditions: 48 hours. The method, then: as §1, §2
Assay [17] concerns SK-OV-3 ovarian cancer cell line. The experiment in a line: SRB analysis 3. As to conditions: 48 hours. The procedure:
as §1, §2

For assay [18], the system named is MCF7 breast cancer cell line. The experiment in a line: SRB analysis 3. The following applies: 48 hours. The procedure:
as §1, §2

For assay [19], the system named is COLO-205 colon cancer cell line. The experiment in a line: SRB analysis 3. As to conditions: 48 hours. The method, then: as §1, §2
Assay [20] deals with T87G glioblastoma (GBM) cell line. The experiment in a line: SRB analysis 3. The following applies: Cisplatin 1 μM, 48 hours. The procedure:
as §2, with “Through SRB analysis (n=3), the effect of triple combination treatment of a CAC inhibitor ([…] inhibitor (KN713: trimetazidine) and other anticancer drug on cell growth in the cancer cells was analyzed. (see Table 11). The” for “The”, “nm.” for “nm. The effect of the drug was expressed as GI50 (50% growth inhibition), TGI (total growth inhibition) or LC50 (lethal concentration). GI50 is the maximum concentration at the moment of 50% inhibition of cell proliferation and IC50 is the concentration of the drug that inhibits the enzyme activity in vitro by 50% in this study.”

For assay [21], the system named is U87MG glioblastoma (GBM) cell line. The experiment in a line: SRB analysis 3. As to conditions: Cisplatin 1 μM, 48 hours. The procedure: as §2, with “Through SRB analysis (n=3), the effect of triple combination treatment of a CAC inhibitor ([…] inhibitor (KN713: trimetazidine) and other anticancer drug on cell growth in the cancer cells was analyzed. (see Table 11). The” for “The”, “nm.” for “nm. The effect of the drug was expressed as GI50 (50% growth inhibition), TGI (total growth inhibition) or LC50 (lethal concentration). GI50 is the maximum concentration at the moment of 50% inhibition of cell proliferation and IC50 is the concentration of the drug that inhibits the enzyme activity in vitro by 50% in this study.”

The test system of assay [22] is SU.86.86 pancreatic cancer cells. The experiment in a line: SRB analysis 2. The following applies: KN715 200 μM, 48 hours. The method, then:
(§3) The SRB assay was performed as follows: each cell line (100 μl) was seeded into 96-well microtiter plates at densities ranging from 5,000 to 20,000 cells/well depending on the doubling time of each cell line. After cell seeding, microtiter plates were incubated for 24 h before addition of experimental drug. Drugs were prepared at the indicated concentrations and 100 μl was added to each well; The plates were then incubated in a CO2 incubator. Then, cold TCA was added to terminate the assay. Cells were fixed in situ by gentle addition of 50 μl of cold 50% (w/v) TCA (final concentration: 10% TCA) and incubated at 4° C. for 60 min. The supernatant was discarded and the plate was washed 5 times with tap water and then air dried. A solution (100 μl) of 0.4% (w/v) SRB (Sulforhodamine B) in 1% acetic acid was added to each well, and the plate was left at room temperature for 10 minutes. After staining, the plates were air dried after washing 5 times with 1% acetic acid to remove unbound dye. The bound dye was then solubilized with 10 mM trizma base and the absorbance was recorded at 515 nm using an automated plate reader.

Assay [23] has as its system AsPC-1 pancreatic cancer cells. The experiment in a line: SRB analysis 2. As to conditions: KN715 200 μM, 48 hours. The method, then: as §3
For assay [24], the system named is BxPC-3 pancreatic cancer cells. The experiment in a line: SRB analysis 2. As to conditions: KN715 200 μM, 48 hours. The procedure: as §3
Assay [25] has as its system SNU-324 pancreatic cancer cells. The experiment in a line: SRB analysis 2. The following applies: SNU324; KN715 200 μM; 48 hours. The method, then: as §3
In assay [26] the test system is MIA PaCa2 pancreatic cancer cells. The experiment in a line: SRB analysis 2. The following applies: MIA PaCa-2; KN715 200 μM; 48 hours. The method, then: as §3
Where [27] appears, read: Breast Cancer, BT-549, MDA MB 231.
Where [28] appears, read: Ovarian Cancer, SK-OV-3, OVCAR-3.
The mark [29] stands for this setting: Renal cell carcinoma, ACHN, CAKI-1.

As to `O=c1[nH]cc(F)c(=O)[nH]1` [5-FU], the “Positive/Negative (triple combination of KN510, KN713 and the listed anticancer drug)” value (shortened to “Positive/Negative”) in the assay on cancer cells (setting [27]) is “negative”; in the assay with cancer cells (Colon Cancer, HT-29, COLO-205), “Positive”; with cancer cells (GBM, U87MG, T87G) it was “Positive”; in the assay on cancer cells (Liver Cancer, SNU-449, Huh-7), “Positive”; with cancer cells (NSCLC, A549, H522), “Positive”; in the assay on cancer cells (setting [28]), “negative”. Further, the “Positive/Negative” value is “Positive” in the assay on cancer cells (PDAC, MIA PaCa-2, PANC-1); “Positive” in the assay on cancer cells (Prostate Cancer, PC-3, DU-145); “Positive” in the assay on cancer cells (setting [29]); “Positive” in the assay on cancer cells (Stomach Cancer, MKN-28, AGS); “negative” with cancer cells (melanoma, UACC62, A375). The “cell growth (Control = 100)” value in [1] (5-FU 5 μM) is on record as 28.5; in assay [2] (5-FU 5 μM), 149.7317; in assay [3] (5-FU 5 μM) it was 26.38; in assay [4] (5-FU 5 μM), 59.41; in assay [5] (MKN45, 5-FU 5 μM), 51.03; in assay [6] (5-FU 5 μM), 34.9345. Moreover, the “cell growth (Control = 100)” value in assay [7] (5-FU 5 μM) amounted to 59.14; in assay [8] (5-FU 10 μM), 36.7557; in the assay on A375 melanoma cell line (5-FU 5 μM) it was 95.91; in [9] (5-FU 5 μM), 39.84; in assay [10] (5-FU 5 μM), 77.83; in assay [11] (5-FU 5 μM) it was 73.95. The “cell growth (Control = 100)” value in assay [12] (5-FU 5 μM) is on record as 58.333; in assay [13] (5-FU 5 μM), 59.63; in assay [14] (5-FU 5 μM) it was 14.62; in assay [15] (5-FU 10 μM) it was 64.54; in assay [16] (5-FU 5 μM) it was 51.6552; in [17] (5-FU 5 μM), 80.76. In addition, the “cell growth (Control = 100)” value is 11.29 in assay [18] (5-FU 5 μM) and −4.957 in assay [19] (5-FU 5 μM).

For the compound `N.N.[Cl][Pt][Cl]` [Cisplatin], the “cell growth (Control = 100)” value in assay [20] came out at 120.49; in assay [21], 87.30; in assay [1] (Cisplatin 1 μM), 75.07; in assay [2] (Cisplatin 1 μM) it was 136.3148; in assay [3] (Cisplatin 1 μM), 118.1147; in [4] (Cisplatin 1 μM), 113.4691. The “cell growth (Control = 100)” value is reported as 96.28 in assay [5] (MKN-45, Cisplatin 1 μM); 66.69 in assay [6] (Cisplatin 1 μM); 91.68 in [7] (Cisplatin 1 μM); 95.91 in assay [8] (Cisplatin 1 μM); 85.06 in the assay on A375 melanoma cell line (Cisplatin 1 μM); 74.02 in assay [9] (Cisplatin 1 μM). Also, the “cell growth (Control = 100)” value in assay [10] (Cisplatin 1 μM) was 84.76; in assay [11] (Cisplatin 1 μM), 93.91; in assay [12] (Cisplatin 1 μM) it was 97.49; in assay [13] (Cisplatin 1 μM), 60.85; in assay [14] (Cisplatin 1 μM), 100.5484; in [15] (Cisplatin 1 μM), 94.84. Besides, the “cell growth (Control = 100)” value was determined as 67.15 in assay [16] (Cisplatin 1 μM), 75.0979 in assay [17] (Cisplatin 1 μM), 70.82 in assay [18] (Cisplatin 1 μM) and 83.44 in assay [19] (Cisplatin 1 μM). Besides, the “Positive/Negative” value was “negative” in the assay with cancer cells (setting [27]); “negative” with cancer cells (Colon Cancer, HT-29, COLO-205); “negative” in the assay with cancer cells (GBM, U87MG, T87G); “negative” with cancer cells (Liver Cancer, SNU-449, Huh-7); “negative” in the assay with cancer cells (NSCLC, A549, H522); “negative” in the assay on cancer cells (setting [28]). For the same compound, the “Positive/Negative” value was “negative” in the assay with cancer cells (PDAC, MIA PaCa-2, PANC-1); “negative” with cancer cells (Prostate Cancer, PC-3, DU-145); “negative” with cancer cells (setting [29]); “negative” in the assay on cancer cells (Stomach Cancer, MKN-28, AGS); “negative” with cancer cells (melanoma, UACC62, A375).

With `COc1ccccc1OCC(O)CN1CCN(CC(=O)Nc2c(C)cccc2C)CC1` (centres unmarked) [KN715, ranolazine], the “degree of cell growth based on the control (100%)” value was 90.37% and 63.92% and 73.38% in [22]; 86.53% and 57.91% and 63.15% in assay [23]; 46.24% and 45.76% and 59.04% in assay [24]; 23.58% and 23.63% and 27.45% in assay [25]; 87.91% and 65.15% and 73.29% in assay [26].

Turning to `CCCS(=O)(=O)Nc1ccc(F)c(C(=O)c2c[nH]c3ncc(-c4ccc(Cl)cc4)cc23)c1F` [Vermutafenib], the figures for the “cell growth (Control = 100)” value (in assay [7] (Vermutafenib 0.5 μM); in the assay with A375 melanoma cell line (Vermutafenib 0.5 μM)) were 2.10 and 7.77, respectively.
